Where a name gives a salt, the structure may show the parent alone.
Target: TrkA (Homo sapiens (Human), UniProt P04629)
Test: TrkA Omnia Assay
Assay type: biochemical
Conditions: averaged IC50; 20 nM enzyme, 500 μM ATP, 10 μM peptide substrate
Method in brief: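 Recombinant TrkA (20 nM) preincubated 10 min at ambient temperature with compound, then Omnia Tyr Peptide #4 (10 μM) and ATP (500 μM) added in 25 mM MOPS pH 7.5, 5 mM MgCl2, 0.005% Triton X-100. Fluorescence (ex 360/em 485 nm) followed continuously for 70 min; IC50 from initial rates by 4- or 5-parameter logistic fit.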

TrkA, sequence (P04629 33-796): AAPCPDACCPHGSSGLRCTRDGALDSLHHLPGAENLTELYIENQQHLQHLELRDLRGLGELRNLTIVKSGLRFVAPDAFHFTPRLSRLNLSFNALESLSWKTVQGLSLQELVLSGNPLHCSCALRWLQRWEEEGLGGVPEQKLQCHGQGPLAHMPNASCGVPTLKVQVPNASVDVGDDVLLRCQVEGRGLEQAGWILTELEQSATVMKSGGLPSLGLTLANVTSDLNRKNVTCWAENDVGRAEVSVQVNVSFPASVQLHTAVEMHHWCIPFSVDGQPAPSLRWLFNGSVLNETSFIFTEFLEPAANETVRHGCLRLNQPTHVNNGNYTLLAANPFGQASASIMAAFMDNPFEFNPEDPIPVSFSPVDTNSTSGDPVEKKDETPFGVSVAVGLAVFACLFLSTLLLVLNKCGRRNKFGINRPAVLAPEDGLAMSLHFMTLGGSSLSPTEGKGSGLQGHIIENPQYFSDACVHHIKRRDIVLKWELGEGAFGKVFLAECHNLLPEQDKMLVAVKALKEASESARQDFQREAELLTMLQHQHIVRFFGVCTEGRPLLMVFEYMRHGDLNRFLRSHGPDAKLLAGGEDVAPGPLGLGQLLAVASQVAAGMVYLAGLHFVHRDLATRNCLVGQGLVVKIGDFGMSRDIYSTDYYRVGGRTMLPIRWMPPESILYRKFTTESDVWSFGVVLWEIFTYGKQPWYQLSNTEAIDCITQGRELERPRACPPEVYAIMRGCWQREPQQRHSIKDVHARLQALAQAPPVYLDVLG

| SMILES | IC50 |
| --- | --- |
| COCCN1C[C@@H](NC(=O)Nc2cc(C(C)(C)C)nn2-c2cccnc2)[C@H](c2ccccc2)C1 (relative stereo) [Example 7, 1-(3-tert-butyl-1-(pyridin-3-yl)-1H-pyrazol-5-yl)-3-(trans-1-(2-methoxyethyl)-4-phenylpyrrolidin-3-yl) urea] | 1000 to 10000 nM |
| COCCN1C[C@@H](NC(=O)Nc2c3c(nn2-c2ccccc2)CCC3)[C@H](c2cc(F)cc(F)c2)C1 [Example 84, 1-((3S,4R)-4-(3,5-difluoro-phenyl)-1-(2-methoxyethyl)pyrrolidin-3-yl)-3-(2-phenyl-2,4,5,6-tetrahydro-cyclopenta[c]pyrazol-3-yl)urea] | < 100 nM |
| COCCN1C[C@@H](NC(=O)Nc2c(C)c([C@H]3C[C@@H](O)C3)nn2-c2ccccc2)[C@H](c2ccc(F)c(F)c2)C1 [Example 450, 1-((3S,4R)-4-(3,4-difluorophenyl)-1-(2-methoxyethyl)pyrrolidin-3-yl)-3-(3-(cis-3-hydroxycyclobutyl)-4-methyl-1-phenyl-1H-pyrazol-5-yl)urea] | < 100 nM |
| CCn1nc(-c2ccccc2)cc1NC(=O)N[C@@H]1CN(CCOC)C[C@H]1c1ccccc1 (relative stereo) [Example 25, 1-(1-ethyl-3-phenyl-1H-pyrazol-5-yl)-3-(trans-1-(2-methoxyethyl)-4-phenylpyrrolidin-3-yl)urea] | 100 to 1000 nM |
| COCCN1C[C@@H](NC(=O)Nc2cc(C(C)(C)C)nn2C2CCOCC2)[C@H](c2ccccc2)C1 [Example 34, 1-(3-tert-butyl-1-(tetrahyro-2H-pyran-4-yl)-1H-pyrazol-5-yl)-3-(trans-1-(2-methoxyethyl)-4-phenylpyrrolidin-3-yl)urea] | 1000 to 10000 nM |
| COCCN1C[C@@H](NC(=O)Nc2c(Cl)c(C)nn2-c2ccccc2)[C@H](c2cncc(F)c2)C1 [Example 434] | < 100 nM |
| COCCN1C[C@@H](NC(=O)Nc2cc(-c3ccc(C(N)=O)cc3)nn2C)[C@H](c2ccc(F)c(F)c2)C1 [Example 162, 4-(5-(3-((3S,4R)-4-(3,4-difluorophenyl)-1-(2-methoxyethyl)pyrrolidin-3-yl)ureido)-1-methyl-1H-pyrazol-3-yl)benzamide] | < 100 nM |
| COCCN1C[C@@H](NC(=O)Nc2cc(C(C)(C)C)nn2-c2ccccc2F)[C@H](c2ccccc2)C1 (relative stereo) [Example 16, 1-(3-tert-butyl-1-(2-fluorophenyl)-1H-pyrazol-5-yl)-3-(trans-1-(2-methoxyethyl)-4-phenylpyrrolidin-3-yl)urea] | 1000 to 10000 nM |
| COCCN1C[C@@H](NC(=O)Nc2cc(-c3cnccn3)nn2C)[C@H](c2ccc(F)c(F)c2)C1 [Example 155, 1-((3S,4R)-4-(3,4-difluorophenyl)-1-(2-methoxyethyl)pyrrolidin-3-yl)-3-(1-methyl-3-(pyrazin-2-yl)-1H-pyrazol-5-yl)urea] | < 100 nM |
| COCCN1C[C@@H](NC(=O)Nc2c(-c3ccccc3)nn(C)c2C)[C@H](c2ccc(F)c(F)c2)C1 [Example 639, 1-((3S,4R)-4-(3,4-difluorophenyl)-1-(2-methoxyethyl)pyrrolidin-3-yl)-3-(1,5-dimethyl-3-phenyl-1H-pyrazol-4-yl)urea] | < 100 nM |
| COCCN1C[C@@H](NC(=O)Nc2c(C)c(C#N)nn2-c2ccccc2)[C@H](c2ccc(F)c(F)c2)C1 [Example 349, 1-(3-cyano-4-methyl-1-phenyl-1H-pyrazol-5-yl)-3-((3S,4R)-4-(3,4-difluorophenyl)-1-(2-methoxyethyl)pyrrolidin-3-yl)urea] | < 100 nM |
| COc1ncccc1N1C[C@@H](NC(=O)Nc2c(Br)c(-c3cnn(C)c3)nn2-c2ccccc2)[C@H](c2ccccc2)C1 [Example 246, 1-(4-bromo-1′-methyl-1-phenyl-1H,1′H-[3,4′-bipyrazol]-5-yl)-3-((3S,4R)-1-(2-methoxypyridin-3-yl)-4-phenylpyrrolidin-3-yl)urea] | < 100 nM |
| COCCN1C[C@@H](NC(=O)Nc2c(C)c(-c3cnn(C(=O)C4CC4)c3)nn2-c2ccccc2)[C@H](c2ccc(F)c(F)c2)C1 [Example 501, 1-(1′-(cyclopropanecarbonyl)-4-methyl-1-phenyl-1H,1′H-[3,4′-bipyrazol]-5-yl)-3-((3S,4R)-4-(3,4-difluorophenyl)-1-(2-methoxyethyl)pyrrolidin-3-yl)urea] | < 100 nM |
| COCCN1C[C@@H](NC(=O)Nc2c(Cl)c([C@@H]3CCCN3)nn2-c2ccccc2)[C@H](c2ccc(F)c(F)c2)C1 [Example 587, 1-((3S,4R)-4-(3,4-difluorophenyl)-1-(2-methoxyethyl)pyrrolidin-3-yl)-3-(4-chloro-1-phenyl-3-((S)-pyrrolidin-2-yl)-1H-pyrazol-5-yl)urea dihydrochloride] | < 100 nM |
| COCCN1C[C@@H](NC(=O)Nc2c(Cl)c(C3CCN(C(=O)OC(C)(C)C)CC3)nn2-c2ccccc2)[C@H](c2ccc(F)c(F)c2)C1 [Example 569, Tert-butyl 4-(4-chloro-5-(3-((3S,4R)-4-(3,4-difluorophenyl)-1-(2-methoxyethyl)pyrrolidin-3-yl)ureido)-1-phenyl-1H-pyrazol-3-yl)piperidine-1-carboxylate] | < 100 nM |
| COCCOc1ccc(-c2cc(NC(=O)N[C@@H]3CN(CCOC)C[C@H]3c3ccc(F)c(F)c3)n(C)n2)cc1 [Example 130, 1-((3S,4R)-4-(3,4-difluorophenyl)-1-(2-methoxyethyl)pyrrolidin-3-yl)-3-(3-(4-(2-methoxyethoxy)phenyl)-1-methyl-1H-pyrazol-5-yl)urea] | < 100 nM |
| COCCN1C[C@@H](NC(=O)Nc2cc(-c3ccccc3C)nn2C)[C@H](c2ccc(F)c(F)c2)C1 [Example 104, 1-((3S,4R)-4-(3,4-difluorophenyl)-1-(2-methoxyethyl)pyrrolidin-3-yl)-3-(1-methyl-3-o-tolyl-1H-pyrazol-5-yl) urea] | < 100 nM |
| COCCN1C[C@@H](NC(=O)Nc2c3c(nn2-c2ccccc2)CCC3)[C@H](c2cnco2)C1 (relative stereo) [Example 46, 1-(trans-1-(2-methoxyethyl)-4-(oxazol-5-yl)pyrrolidin-3-yl)-3-(2-phenyl-2,4,5,6-tetrahydrocyclopenta[c]pyrazol-3-yl)urea] | 1000 to 10000 nM |

Second part, the compound after the results:

| IC50 | SMILES |
| --- | --- |
| < 100 nM | Cc1c(-c2cnc(N)nc2)nn(-c2ccccc2)c1NC(=O)N[C@H]1CN(CC(F)(F)F)C[C@@H]1c1ccccc1 [Example 522, 1-(3-(2-aminopyrimidin-5-yl)-4-methyl-1-phenyl-1H-pyrazol-5-yl)-3-((3R,4S)-4-phenyl-1-(2,2,2-trifluoroethyl)pyrrolidin-3-yl)urea bis(2,2,2-trifluoroacetate)] |
| < 100 nM | COCCN1C[C@@H](NC(=O)Nc2c(Cl)c(-c3cnn(C)c3)nn2-c2ccccc2)[C@H](c2cc(F)cc(F)c2)C1 [Example 422, 1-(4-chloro-1′-methyl-1-phenyl-1H,1′H-[3,4′-bipyrazol]-5-yl)-3-((3S,4R)-4-(3,5-difluorophenyl)-1-(2-methoxyethyl)pyrrolidin-3-yl)urea] |
| < 100 nM | COCCN1C[C@@H](NC(=O)Nc2c(C)c(OC)nn2-c2ccccc2)[C@H](c2ccc(F)cc2)C1 [Example 143, 1-((3S,4R)-4-(4-fluorophenyl)-1-(2-methoxyethyl)pyrrolidin-3-yl)-3-(3-methoxy-4-methyl-1-phenyl-1H-pyrazol-5-yl)urea] |
| < 100 nM | COCCN1C[C@@H](NC(=O)Nc2c(C)c(-c3cnc(OC)nc3)nn2-c2ccccc2)[C@H](c2ccc(F)c(F)c2)C1 [Example 526, 1-((3S,4R)-4-(3,4-difluorophenyvl)-1-(2-methoxyethyl)pyrrolidin-3-yl)-3-(3-(2-methoxypyrimidin-5-yl)-4-methyl-1-phenyl-1H-pyrazol-5-yl)urea] |
| < 100 nM | COCCN1C[C@@H](NC(=O)Nc2c(C)c(-c3cnn(CCOC)c3)nn2-c2ccccc2)[C@H](c2ccc(F)cc2)C1 [Example 382, 1-((3S,4R)-4-(4-fluorophenyl)-1-(2-methoxyethyl)pyrrolidin-3-yl)-3-(1′-(2-methoxyethyl)-4-methyl-1-phenyl-1H,1′H-[3,4′-bipyrazol]-5-yl)urea] |
| < 100 nM | COCCN1C[C@@H](NC(=O)Nc2c(C#N)c(=O)[nH]n2-c2ccccc2)[C@H](c2ccc(F)c(F)c2)C1 [Example 618, 1-(4-cyano-5-oxo-2-phenyl-2,5-dihydro-1H-pyrazol-3-yl)-3-((3S,4R)-4-(3,4-difluorophenyl)-1-(2-methoxyethyl)pyrrolidin-3-yl)urea] |
| < 100 nM | COCCN1C[C@@H](NC(=O)Nc2c(F)c(C)nn2-c2ccccc2)[C@H](c2ccc(F)c(F)c2)C1 [Example 167, 1-((3S,4R)-4-(3,4-difluorophenyl)-1-(2-methoxyethyl)pyrrolidin-3-yl)-3-(4-fluoro-3-methyl-1-phenyl-1H-pyrazol-5-yl)urea] |
| < 100 nM | COCCN1C[C@@H](NC(=O)Nc2c(C)c(C(C)(C)CO)nn2-c2ccccc2)[C@H](c2ccccc2)C1 [Example 117, 1-(3-(1-hydroxy-2-methylpropan-2-yl)-4-methyl-1-phenyl-1H-pyrazol-5-yl)-3-((3S,4R)-1-(2-methoxyethyl)-4-phenylpyrrolidin-3-yl) urea] |
| < 100 nM | COCCN1C[C@@H](NC(=O)Nc2c(C(N)=O)c(C)nn2-c2ccccc2)[C@H](c2ccc(F)c(Cl)c2)C1 (relative stereo) [Example 623, 5-(3-((trans)-4-(3-chloro-4-fluorophenyl)-1-(2-methoxyethyl)pyrrolidin-3-yl)ureido)-3-methyl-1-phenyl-1H-pyrazole-4-carboxamide] |
| < 100 nM | COCCN1C[C@@H](NC(=O)Nc2c(C)c(OCCN)nn2-c2ccccc2)[C@H](c2ccc(F)c(F)c2)C1 [Example 543, 1-(3-(2-aminoethoxy)-4-methyl-1-phenyl-1H-pyrazol-5-yl)-3-((3S,4R)-4-(3,4-difluorophenyl)-1-(2-methoxyethyl)pyrrolidin-3-yl)urea] |
| < 100 nM | COCCN1C[C@@H](NC(=O)Nc2c(F)c(-c3ccccc3)nn2-c2ccccc2)[C@H](c2ccc(F)c(F)c2)C1 [Example 169, 1-((3S,4R)-4-(3,4-difluorophenyl)-1-(2-methoxyethyl)pyrrolidin-3-yl)-3-(4-fluoro-1,3-diphenyl-1H-pyrazol-5-yl)urea] |
